Assay results published in patent EP0703776B1, “UTILIZATION OF A PEPTIDE HAVING A LYSIN GROUP AND AN ALANINE GROUP IN THE TERMINAL POSITION FOR THE PREPARATION OF A DEPIGMENTING COMPOSITION, AND DEPIGMENTING COMPOSITION THUS OBTAINED” (PARFUMS CHRISTIAN DIOR, priority 1993, dated 1997).
No end group written: not given here.

System: tyrosinase de champignon
Experiment: Tyrosinase inhibition (kinetics of dopaquinone formation at 480 nm, substrates L-tyrosine + L-dopa)
Assay type: biochemical

With “KCTCCA (cysteine pairing not given here) [hexapeptide, commercialement disponible chez Sigma, France]” the “pourcentage d'inhibition de la tyrosinase” value (peptide 5.10^-3 M, series T0 (substrates added at time T0)) was 98%, the “pourcentage d'inhibition de la tyrosinase” value (peptide 5.10^-4 M, series T 15 min (substrates added 15 min after mixing peptide and tyrosinase)) was 98% and the “effet d'inhibition de la tyrosinase” value (peptide 5.10^-6 M, result in words) was “déjà très significative”.
